Our source for the IC50 values is patent publication US20250179078A1, “INHIBITORS OF NLRP3” (PTC THERAPEUTICS, INC., priority 2022, published 2025).

For this assay, the target named is T1, NLRP3 (Homo sapiens, UniProt Q96P20).
T1 construct: host or cells: THP-1 cells differentiated with PMA
T1 sequence (Q96P20 whole entry): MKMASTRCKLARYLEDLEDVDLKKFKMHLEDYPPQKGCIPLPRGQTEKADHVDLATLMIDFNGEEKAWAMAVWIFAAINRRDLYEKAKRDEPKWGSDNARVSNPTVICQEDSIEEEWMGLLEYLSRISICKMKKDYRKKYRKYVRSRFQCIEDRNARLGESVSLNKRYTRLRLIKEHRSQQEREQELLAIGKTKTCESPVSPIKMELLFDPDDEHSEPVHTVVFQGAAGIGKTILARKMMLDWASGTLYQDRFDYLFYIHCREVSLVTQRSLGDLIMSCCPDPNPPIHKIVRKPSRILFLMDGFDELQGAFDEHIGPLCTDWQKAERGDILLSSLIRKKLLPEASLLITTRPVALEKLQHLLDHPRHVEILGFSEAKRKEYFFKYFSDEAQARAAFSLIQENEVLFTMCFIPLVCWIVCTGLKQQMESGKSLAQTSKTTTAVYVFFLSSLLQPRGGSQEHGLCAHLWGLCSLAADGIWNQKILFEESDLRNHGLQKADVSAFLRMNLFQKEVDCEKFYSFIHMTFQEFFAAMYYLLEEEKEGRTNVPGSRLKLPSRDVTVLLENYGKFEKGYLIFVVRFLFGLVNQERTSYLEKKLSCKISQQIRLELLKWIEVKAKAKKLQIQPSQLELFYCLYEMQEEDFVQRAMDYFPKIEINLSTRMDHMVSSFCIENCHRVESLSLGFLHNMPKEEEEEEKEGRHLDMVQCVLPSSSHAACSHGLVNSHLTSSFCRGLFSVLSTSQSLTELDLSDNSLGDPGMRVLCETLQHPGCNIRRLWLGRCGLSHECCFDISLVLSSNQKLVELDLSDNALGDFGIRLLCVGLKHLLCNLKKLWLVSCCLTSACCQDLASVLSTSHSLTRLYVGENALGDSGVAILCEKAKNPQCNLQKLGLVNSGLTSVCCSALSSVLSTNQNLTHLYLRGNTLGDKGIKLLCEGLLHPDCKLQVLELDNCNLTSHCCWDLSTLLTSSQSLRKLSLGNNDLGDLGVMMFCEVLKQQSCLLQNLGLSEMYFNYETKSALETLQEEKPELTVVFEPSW
Description: IL-1β Secretion Assay (NLRP3-dependent IL1β secretion in THP1 cells). In kind it is cell-based. Conditions: PMA-differentiated THP-1 cells; compounds incubated 20 h; 2.5 μM Nigericin 3 h; HTRF IL-1β readout; read-out: IC50 IL-1β Inhibition. Summed up: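 THP-1 cells differentiated with 100 ng/mL PMA for 24 h, then given compound (7-point 3-fold series, 1:200 from DMSO) for 20 h in RPMI+5% FBS. NLRP3 activated with 2.5 μM nigericin for 3 h; secreted IL-1β measured by HTRF; IC50 from logistic fit of % inhibition.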
The term IC50 denotes the midpoint of a concentration-inhibition curve. As for `OCCN1CCC[C@@H](Nc2nnc(-c3ccc(C4CC4)cc3OC(F)F)c3cncn23)C1` [Compound 185, 2-[(3R)-3-({1-[4-cyclopropyl-2-(difluoromethoxy)phenyl]imidazo[1,5-d][1,2,4]triazin-4-yl}amino)piperidin-1-yl]ethan-1-ol], the half-inhibitory concentration (IC50) lay in the range of 0.001 to 0.01 µM.

Regarding `C[C@H](Nc1nnc(-c2ccc(C(F)(F)F)cc2OC(F)F)c2cccn12)c1cccc(O)c1` (single isomer, unassigned) [Compound 103], the half-inhibitory concentration (IC50) fell in the range of 0.01 to 0.1 µM.

Take `COc1ccc(-c2nnc(N[C@H]3C[C@@](C)(O)C3)n3cncc23)c(C2CC2)c1` [Compound 319, (1s,3s)-3-{[1-(2-cyclopropyl-4-methoxyphenyl)imidazo[1,5-d][1,2,4]triazin-4-yl]amino}-1-methylcyclobutan-1-ol]: the IC50 fell in the range of 0.01 to 0.1 µM. In the case of `CCN1CCC[C@@H](Nc2nnc(-c3ccc(Cl)cc3Cl)c3cc(C)nn23)C1` [Compound 376, 4-(2,4-dichlorophenyl)-N-[(3R)-1-ethylpiperidin-3-yl]-2-methylpyrazolo[1,5-d][1,2,4]triazin-7-amine], the half-inhibitory concentration (IC50) fell in the range of 0.001 to 0.01 µM. Next, `COc1ccc(-c2nnc(N[C@@H]3CCCN(C)C3)n3ccc(F)c23)c(OC(F)F)c1` [Compound 55, 1-[2-(difluoromethoxy)-4-methoxyphenyl]-8-fluoro-N-[(3R)-1-methylpiperidin-3-yl]pyrrolo[1,2-d][1,2,4]triazin-4-amine]: 0.01 to 0.1 µM; `Cc1cc2c(-c3ccc(C(F)(F)F)cc3C(F)(F)F)nnc(N[C@H]3C[C@@](C)(O)C3)n2c1` [Compound 107, (1s,3s)-3-({1-[2,4-bis(trifluoromethyl)phenyl]-7-methylpyrrolo[1,2-d][1,2,4]triazin-4-yl}amino)-1-methylcyclobutan-1-ol]: 0.01 to 0.1 µM. Take `COc1ccc(-c2nnc(N[C@@H]3CCCC[C@H]3O)n3cncc23)c(CC(F)(F)F)c1` [Compound 237, (1R,2R)-2-({1-[4-methoxy-2-(2,2,2-trifluoroethyl)phenyl]imidazo[1,5-d][1,2,4]triazin-4-yl}amino)cyclohexan-1-ol]: the IC50 lay in the range of 0.001 to 0.01 µM.

For the compound `COc1ccc(-c2nnc(N[C@H]3C[C@@](C)(O)C3)n3cncc23)c(CC(F)(F)F)c1` [Compound 236, (1s,3s)-3-({1-[4-methoxy-2-(2,2,2-trifluoroethyl)phenyl]imidazo[1,5-d][1,2,4]triazin-4-yl}amino)-1-methylcyclobutan-1-ol], the IC50 was 0.001 to 0.01 µM. As for `O[C@@H]1CCCC[C@H]1Nc1nnc(-c2ccc(C(F)(F)F)cc2OC(F)F)c2cccn12` [Compound 110, (1R,2R)-2-({1-[2-(difluoromethoxy)-4-(trifluoromethyl)phenyl]pyrrolo[1,2-d][1,2,4]triazin-4-yl}amino)cyclohexan-1-ol], the IC50 lay in the range of 0.001 to 0.01 µM. Regarding `C[C@@H](O)CNc1nnc(-c2ccc(C(F)(F)F)cc2OC(F)F)c2cccn12` [Compound 63, (2R)-1-({1-[2-(difluoromethoxy)-4-(trifluoromethyl)phenyl]pyrrolo[1,2-d][1,2,4]triazin-4-yl}amino)propan-2-ol], the IC50 was 0.001 to 0.01 µM. Regarding `COc1ccc(-c2nnc(N[C@@H]3CCOC[C@H]3O)n3cncc23)c(OC(F)F)c1` [Compound 268, (3S,4R)-4-({1-[2-(difluoromethoxy)-4-methoxyphenyl]imidazo[1,5-d][1,2,4]triazin-4-yl}amino)oxan-3-ol], the half-maximal inhibitory concentration (IC50) is 0.001 to 0.01 µM. On to `C[C@]1(O)C[C@@H](Nc2nnc(-c3ccc(C(F)(F)F)cc3C(F)(F)F)c3ccnn23)C1` [Compound 4, (1s,3s)-3-({4-[2,4-bis(trifluoromethyl)phenyl]pyrazolo[1,5-d][1,2,4]triazin-7-yl}amino)-1-methylcyclobutan-1-ol], for which the IC50 fell in the range of 0.001 to 0.01 µM.

Turning to `COc1ccc(-c2nnc(NCc3cc[nH]n3)n3cncc23)c(OC(F)(F)F)c1` [Compound 234, 1-[4-methoxy-2-(trifluoromethoxy)phenyl]-N-[(1H-pyrazol-3-yl)methyl]imidazo[1,5-d][1,2,4]triazin-4-amine], the IC50 was in the range of 0.01 to 0.1 µM.

As to `CN1CCCC(Nc2nnc(-c3ccc(C(F)(F)F)cc3C(F)(F)F)c3cncn23)C1=O` (centres unmarked) [Compound 272, 3-({1-[2,4-bis(trifluoromethyl)phenyl]imidazo[1,5-d][1,2,4]triazin-4-yl}amino)-1-methylpiperidin-2-one], the IC50 lay in the range of 0.001 to 0.01 µM. As for `COc1ccc(-c2nnc(N[C@@H]3CCC[C@H](O)C3)n3cncc23)c(CC(F)(F)F)c1` [Compound 302, (1S,3R)-3-({1-[4-methoxy-2-(2,2,2-trifluoroethyl)phenyl]imidazo[1,5-d][1,2,4]triazin-4-yl}amino)cyclohexan-1-ol], the IC50 was in the range of 0.001 to 0.01 µM. Turning to `COc1ccc(-c2nnc(N[C@H]3CCCC[C@@H]3O)n3cccc23)c(OC(F)(F)F)c1` [Compound 81, (1S,2S)-2-({1-[4-methoxy-2-(trifluoromethoxy)phenyl]pyrrolo[1,2-d][1,2,4]triazin-4-yl}amino)cyclohexan-1-ol], the IC50 lay within 0.01 to 0.1 µM. Next, `OCCN1CCC[C@@H](Nc2nnc(-c3ccc(C(F)(F)F)cc3OC(F)F)c3cncn23)C1` [Compound 186, 2-[(3R)-3-({1-[2-(difluoromethoxy)-4-(trifluoromethyl)phenyl]imidazo[1,5-d][1,2,4]triazin-4-yl}amino)piperidin-1-yl]ethan-1-ol]: less than 0.001 µM. On to `COc1ccc(-c2nnc(N[C@@H]3CCCN(C)C3)n3cncc23)c(C(F)(F)C(F)(F)F)c1` [Compound 281, 1-[4-methoxy-2-(pentafluoroethyl)phenyl]-N-[(3R)-1-methylpiperidin-3-yl]imidazo[1,5-d][1,2,4]triazin-4-amine], for which the IC50 was 0.001 to 0.01 µM. As for `O=C1NCCC1Nc1nnc(-c2ccc(OC(F)F)cc2OC(F)(F)F)c2cccn12` (centres unmarked) [Compound 154, 3-({1-[4-(difluoromethoxy)-2-(trifluoromethoxy)phenyl]pyrrolo[1,2-d][1,2,4]triazin-4-yl}amino)pyrrolidin-2-one], the half-inhibitory concentration (IC50) fell in the range of 0.001 to 0.01 µM. Consider `CCN1CCC[C@@H](Nc2nnc(-c3ccc(OC)cc3OC(F)F)c3cccn23)C1` [Compound 166, 1-[2-(difluoromethoxy)-4-methoxyphenyl]-N-[(3R)-1-ethylpiperidin-3-yl]pyrrolo[1,2-d][1,2,4]triazin-4-amine], for which the IC50 was less than 0.001 µM. For `CCN1CCC[C@@H](Nc2nnc(-c3ccc(C(F)(F)F)cc3C(F)(F)F)c3c(F)ccn23)C1` [Compound 29, 1-[2,4-bis(trifluoromethyl)phenyl]-N-[(3R)-1-ethylpiperidin-3-yl]-8-fluoropyrrolo[1,2-d][1,2,4]triazin-4-amine], the IC50 fell in the range of 0.001 to 0.01 µM.

For the compound `O[C@H]1CCCC[C@@H]1Nc1nnc(-c2ccc(C(F)(F)F)cc2OC(F)(F)F)c2cncn12` [Compound 290], the IC50 was 0.01 to 0.1 µM.

Consider `Cc1ccc(-c2nnc(N[C@@H]3CCCN(C)C3)n3cccc23)c(OC(F)(F)F)c1` [Compound 36, N-[(3R)-1-methylpiperidin-3-yl]-1-[4-methyl-2-(trifluoromethoxy)phenyl]pyrrolo[1,2-d][1,2,4]triazin-4-amine], for which the half-inhibitory concentration (IC50) lay in the range of 0.001 to 0.01 µM.

On to `Cc1ccc(-c2nnc(N[C@H]3C[C@@](C)(O)C3)n3nc(C)cc23)c(CC(F)(F)F)c1` [Compound 390, (1s,3s)-1-methyl-3-({2-methyl-4-[4-methyl-2-(2,2,2-trifluoroethyl)phenyl]pyrazolo[1,5-d][1,2,4]triazin-7-yl}amino)cyclobutan-1-ol], for which the IC50 was 0.001 to 0.01 µM.

For the compound `CC(Nc1nnc(-c2ccc(C(F)(F)F)cc2CC(F)(F)F)c2cncn12)c1cccc(O)c1` (centres unmarked) [Compound 266], the IC50 is less than 0.001 µM. As to `OCCN1CCC[C@@H](Nc2nnc(-c3ccc(C(F)(F)F)cc3OCF)c3cccn23)C1` [Compound 173, 2-[(3R)-3-({1-[2-(fluoromethoxy)-4-(trifluoromethyl)phenyl]pyrrolo[1,2-d][1,2,4]triazin-4-yl}amino)piperidin-1-yl]ethan-1-ol], the half-maximal inhibitory concentration (IC50) is less than 0.001 µM. On to `COc1ccc(-c2nnc(N[C@@H]3CCCC[C@H]3O)n3cncc23)c(OC(F)(F)F)c1` [Compound 223, (1R,2R)-2-({1-[4-methoxy-2-(trifluoromethoxy)phenyl]imidazo[1,5-d][1,2,4]triazin-4-yl}amino)cyclohexan-1-ol], for which the IC50 lay in the range of 0.001 to 0.01 µM.

Take `CCN1CCC[C@@H](Nc2nnc(-c3ccc(C(F)(F)F)cc3F)c3cccn23)C1` [Compound 20, N-[(3R)-1-ethylpiperidin-3-yl]-1-[2-fluoro-4-(trifluoromethyl)phenyl]pyrrolo[1,2-d][1,2,4]triazin-4-amine]: the IC50 was in the range of 0.001 to 0.01 µM. In the case of `COc1ccc(-c2nnc(N[C@@H]3CCCC[C@H]3O)n3cccc23)c(CC(F)(F)F)c1` [Compound 138, (1R,2R)-2-({1-[4-methoxy-2-(2,2,2-trifluoroethyl)phenyl]pyrrolo[1,2-d][1,2,4]triazin-4-yl}amino)cyclohexan-1-ol], the IC50 lay in the range of 0.001 to 0.01 µM. Regarding `COc1ccc(-c2nnc(N[C@@H]3CCCN(C)C3)n3cccc23)c(OC(F)(F)F)c1` [Compound 8, 1-[4-methoxy-2-(trifluoromethoxy)phenyl]-N-[(3R)-1-methylpiperidin-3-yl]pyrrolo[1,2-d][1,2,4]triazin-4-amine], the concentration for half-maximal inhibition (IC50) was 0.001 to 0.01 µM. Turning to `CCN1CCC[C@@H](Nc2nnc(-c3ccc(OC)cc3OC3CC3)c3cccn23)C1` [Compound 182, 1-[2-(cyclopropyloxy)-4-methoxyphenyl]-N-[(3R)-1-ethylpiperidin-3-yl]pyrrolo[1,2-d][1,2,4]triazin-4-amine], the concentration for half-maximal inhibition (IC50) fell in the range of 0.001 to 0.01 µM. Regarding `Cc1ccc(-c2nnc(N[C@@H]3CCCN(C)C3)n3cc(C)cc23)c(OC(F)F)c1` [Compound 25, 1-[2-(difluoromethoxy)-4-methylphenyl]-7-methyl-N-[(3R)-1-methylpiperidin-3-yl]pyrrolo[1,2-d][1,2,4]triazin-4-amine], the IC50 lay in the range of 0.001 to 0.01 µM.
